# Results as given in PubChem BioAssay (NCI).
#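 A five-concentration, 48-hour dose response in 96-well plates underlies each endpoint, interpolated linearly between surrounding concentrations. Definition used: TGI = concentration required for complete inhibition of growth.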
# Columns and labels:
# Assay in all cases: DTP human tumour cell line panel, 48 h
# SNB-78 CNS = tested on: SNB-78 CNS
# M19-MEL melanoma = tested on: M19-MEL melanoma
# LXFL 529 NSCLC = tested on: LXFL 529 NSCLC
# DMS 273 small cell lung = tested on: DMS 273 small cell lung
# DLD-1 colon = tested on: DLD-1 colon
# RXF-631 renal = tested on: RXF-631 renal
Structure (SMILES),TGI (SNB-78 CNS) [µM],TGI (M19-MEL melanoma) [µM],TGI (LXFL 529 NSCLC) [µM],TGI (DMS 273 small cell lung) [µM],TGI (DLD-1 colon) [µM],TGI (RXF-631 renal) [µM]
O=C(O)OC12CCCCCC1C(=O)C1CCCCC12 (stereo unspecified),> 100,> 100,> 100,> 100,,
CSC(SC)=C1Sc2cccc(Cl)c2S1,> 100,> 100,> 100,> 100,> 100,
Nc1cc2c(C3OC(CO)C(O)C3O)[nH]nc2c(=S)[nH]1 (stereo unspecified),> 100,> 100,> 100,> 100,> 100,> 100
CCCCc1c2c([n+]([O-])c3c1CCCC3)CCCC2,,> 100,> 100,> 100,,
Cc1[nH]n(C(=O)Cc2ccccc2)c(=O)c1/C=C1\C(=O)C=Cc2ccccc21,,> 100,,> 100,,
CCCCCCCCCCCCOC(=N)N1CCOCC1,27.8,17.7,15.1,25.1,12.7,22.6
CSc1cnc2ccccc2c1Sc1cn(C)c2ccccc2c1=O,,> 100,,> 100,> 100,42.5
COC1=C(OC)C(=O)c2cc(C)c(=O)c(C)cc2C1=O,45.5,11.5,13.9,45.5,41.4,> 100
N#CC(NNC(=O)c1ccccc1O)c1ccccc1O (stereo unspecified),> 100,27.2,> 100,> 100,> 100,
